Data on 9 compounds can be found in PubChem BioAssay (NCI).

What all share (assay): NCI tumour cell line growth inhibition, 48 h
Experiment [1] concerns A549 NSCLC.
Experiment [2] relates to COLO 205 colon.
Experiment [3] relates to EKVX NSCLC.
The test system of experiment [4] is HCT-15 colon.
For experiment [5], the system named is HOP-62 NSCLC.
Experiment [6] concerns KM12 colon.
In experiment [7] the test system is OVCAR-4 ovarian.
For experiment [8], the system named is SF-268 CNS.
The test system of experiment [9] is SF-295 CNS.
In experiment [10] the test system is SR leukemia.

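1) Cells in 96-well plates. 2) Compound, 48 h, 5 concentrations. 3) Linear interpolation between surrounding doses. 4) Unreached endpoint = highest concentration. GI50 is the concentration that inhibits growth by half. TGI marks complete inhibition of growth.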

As for `N=c1c2c(=O)n3c(nc2nc2sc4ccc(Cl)cc4n12)-c1ccccc1Sc1ccccc1-3`, the GI50 in experiment [1] was 1.98 µM; in experiment [2], 2.24 µM; in experiment [3], 1.42 µM; in experiment [4] it was 2.96 µM; in experiment [5] it was 3.64 µM; in experiment [6], 2.9 µM. Further, the GI50 in experiment [7] was 3.5 µM; in experiment [8] it was 3.52 µM; in experiment [9] it was 1.41 µM; in experiment [10] it was 2.15 µM. Moreover, the TGI in experiment [1] was determined as 12.5 µM; in experiment [2] it was 5.24 µM; in [3], 8.97 µM; in experiment [4] it was 14.5 µM; in [5], 28.3 µM; in experiment [6], 12.4 µM. For the same compound, the TGI worked out at 19.6 µM in [7], 18.3 µM in experiment [8], 5.79 µM in experiment [9] and 9.14 µM in experiment [10].
With `COc1ccc(C2SC(C)C(=O)N2NC(=O)C(O)c2ccccc2)cc1` (centres undefined), the GI50 in experiment [1], in experiment [2], in experiment [3], in experiment [4], in experiment [5] and in [6] was over 100 µM in each case. The GI50 is over 100 µM in experiment [7], over 100 µM in experiment [8], over 100 µM in experiment [9] and 63 µM in experiment [10]. The TGI in experiment [1], in experiment [2], in [3], in experiment [4], in [5] and in [6] was over 100 µM each time. In addition, the TGI in [7], in [8], in experiment [9] and in experiment [10] was over 100 µM in each case.
Take `CNC(=S)N/N=C(/C)CCC/C(C)=N/NC(=S)NC`: the TGI in experiment [1], in [2], in experiment [3], in experiment [4], in [5] and in [6] was over 100 µM in each case. The TGI in experiment [7] is 29.2 µM; in experiment [8], over 88.7 µM; in experiment [9], over 100 µM; in experiment [10] it was over 100 µM.
Turning to `Cn1cc(-c2nc(-c3cn(C)c4ncccc34)cs2)c2cc(F)ccc21`, the GI50 in [1] was 1.74 µM; in experiment [2] it was 1.44 µM; in experiment [3], 1.93 µM; in experiment [4], 1.51 µM; in experiment [5] it was 2.67 µM; in [6], 0.61 µM. Further, the GI50 in experiment [7] is 0.746 µM; in experiment [8], 3.38 µM; in experiment [9], 0.709 µM; in experiment [10] it was 0.565 µM. For the same compound, the TGI in experiment [1] was over 100 µM; in experiment [2], 7.49 µM; in [3], 74.3 µM; in [4], over 100 µM; in experiment [5] it was 84.7 µM; in experiment [6], 14.6 µM. Further, the TGI was over 100 µM in [7], 47.2 µM in [8], 6.18 µM in [9] and 17.8 µM in experiment [10].
With `Cc1ccc(S(=O)(=O)C2=C3C(=C(c4ccccc4)c4ccccc43)CN(S(=O)(=O)c3ccc(C)cc3)C2)cc1`, the GI50 in [1] was over 100 µM; in [2] it was 14.9 µM; in experiment [3] it was 6.01 µM; in experiment [4], 2.32 µM; in experiment [5] it was 15.4 µM; in experiment [6], 5.87 µM. The GI50 in experiment [7] is 5.31 µM; in [8] it was 2.6 µM; in experiment [9], 9.97 µM; in experiment [10], 1.55 µM. In addition, the TGI in experiment [1] was over 100 µM; in experiment [2] it was over 100 µM; in experiment [3], over 100 µM; in experiment [4], 16.3 µM; in experiment [5], 51.9 µM; in [6], over 100 µM. Moreover, the TGI in experiment [7] is 72.9 µM; in [8], 12.9 µM; in [9], 57 µM; in experiment [10], 25.7 µM.
As for `COc1cccc(-c2cc(NCc3ccc4c(c3)OCO4)nc(N)n2)c1`, the GI50 is 0.057 µM in experiment [1]; 0.0466 µM in experiment [2]; 3.33 µM in experiment [3]; 0.0533 µM in experiment [4]; 0.362 µM in experiment [5]; 0.072 µM in experiment [6]. Moreover, the GI50 in experiment [7] is 0.225 µM; in experiment [8], 3.29 µM; in experiment [9] it was 0.0597 µM; in experiment [10], 0.0453 µM. The TGI in [1] came to 14.9 µM; in experiment [2] it was 0.198 µM; in experiment [3], 52.3 µM; in [4], 13.9 µM; in experiment [5], 17.4 µM; in experiment [6] it was 8.18 µM. In addition, the TGI in experiment [7] was 27.5 µM; in [8], 22.9 µM; in experiment [9], 14.4 µM; in [10], 75 µM.
Consider `Cc1cc(NC(=O)C(=O)Cc2nc3ccccc3s2)ccc1Cl`, for which the TGI in experiment [1], in [2], in experiment [3], in experiment [4], in experiment [5] and in experiment [6] was over 100 µM each time. In addition, the TGI in [7], in [8], in experiment [9] and in experiment [10] was over 100 µM each time.
Consider `C=C1CCC2C(C)(CO)C(O)CCC2(C)C1CC(O)C1=CCOC1=O` (centres undefined), for which the TGI in experiment [1], in experiment [2], in experiment [3], in experiment [4], in [5] and in experiment [6] was over 100 µM each time. Moreover, the TGI in [7] was over 100 µM; in experiment [8], over 100 µM; in [9], over 100 µM; in experiment [10], 65.9 µM.
Turning to `COc1ccc2cc(C(=O)/C=C/c3ccccc3OC)ccc2c1`, the GI50 was 4.69 µM in [1]; 3.56 µM in experiment [2]; 17.5 µM in experiment [3]; 1.67 µM in experiment [4]; 7.51 µM in experiment [5]; 1.6 µM in experiment [6]. Also, the GI50 was 18.9 µM in experiment [7], over 20.6 µM in experiment [8], 1.59 µM in [9] and 0.312 µM in experiment [10]. Moreover, the TGI came to 11.9 µM in experiment [1]; 49.4 µM in [2]; 58.5 µM in [3]; 14.3 µM in experiment [4]; 25.6 µM in [5]; 9.51 µM in [6]. For the same compound, the TGI in [7] is over 100 µM; in experiment [8], over 100 µM; in [9], 7.2 µM.
